Experimental data reported in US20100292325A1, “P-MENTHAWE-3-CARBOXYLIC ACID ESTERS TO TREAT AIRWAYS DISEASES” (priority 2007, published 2010).
Values belong to the molecule of their own block, whether it stands above or below them.

Legend:
[1] = system: oropharynx (back of the mouth); test: Bioassay: compound applied by glass rod onto the posterior dorsal tongue, oral sensations noted; format: in vivo, human; conditions: for sensation from the oral cavity: 2 mg on the posterior third of the tongue; for cooling qualities: in vivo
Method: CPS-004 and CPS-030 are liquids at room temperatures. These compounds were tested by placing 0, 2, 5 and 8 mg on a 6-inch glass rod and applying these compounds onto the posterior third of the dorsal surface of the tongue. After depositing the test substance, the subject was instructed to keep the mouth closed and allow the test substance to distribute to the back of the mouth (orpharynx). The presence and duration of sensations from the oral cavity was then noted.

TRP-M8 = TRP-M8 (Homo sapiens, UniProt Q7Z2W7); conditions: cited from earlier work
TRP-M8, sequence (Q7Z2W7 whole entry, species assumed): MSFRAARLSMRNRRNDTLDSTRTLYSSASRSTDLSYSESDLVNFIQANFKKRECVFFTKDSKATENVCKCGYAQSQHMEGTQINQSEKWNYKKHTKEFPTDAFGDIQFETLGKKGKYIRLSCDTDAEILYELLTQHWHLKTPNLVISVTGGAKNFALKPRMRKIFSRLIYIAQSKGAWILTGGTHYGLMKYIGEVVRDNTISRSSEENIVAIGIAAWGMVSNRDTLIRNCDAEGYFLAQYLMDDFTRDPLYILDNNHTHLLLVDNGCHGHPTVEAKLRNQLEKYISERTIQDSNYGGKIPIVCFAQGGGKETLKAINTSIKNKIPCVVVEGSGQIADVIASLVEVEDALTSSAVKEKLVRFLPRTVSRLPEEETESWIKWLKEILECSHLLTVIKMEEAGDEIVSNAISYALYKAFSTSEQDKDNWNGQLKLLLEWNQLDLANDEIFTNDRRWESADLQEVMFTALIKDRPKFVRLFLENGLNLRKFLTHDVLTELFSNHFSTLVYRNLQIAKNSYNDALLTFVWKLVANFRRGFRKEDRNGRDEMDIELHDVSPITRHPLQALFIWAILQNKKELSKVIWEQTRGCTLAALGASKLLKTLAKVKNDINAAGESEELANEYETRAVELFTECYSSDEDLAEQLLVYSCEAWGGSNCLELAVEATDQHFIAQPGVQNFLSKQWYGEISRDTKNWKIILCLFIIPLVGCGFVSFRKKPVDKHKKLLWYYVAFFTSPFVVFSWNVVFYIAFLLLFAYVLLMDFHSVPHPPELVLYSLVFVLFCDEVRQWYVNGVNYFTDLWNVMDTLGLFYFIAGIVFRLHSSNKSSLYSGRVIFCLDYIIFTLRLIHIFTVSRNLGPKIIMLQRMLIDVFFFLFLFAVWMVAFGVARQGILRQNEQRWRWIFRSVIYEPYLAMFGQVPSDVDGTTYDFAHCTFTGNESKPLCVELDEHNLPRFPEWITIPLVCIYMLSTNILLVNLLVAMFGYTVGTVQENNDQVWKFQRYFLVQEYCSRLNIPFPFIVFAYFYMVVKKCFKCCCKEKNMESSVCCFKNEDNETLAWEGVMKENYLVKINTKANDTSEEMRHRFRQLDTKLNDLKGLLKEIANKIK

skin = conditions: in vivo; cited from earlier work

SMILES: CC(C)[C@@H]1CC[C@@H](C)C[C@H]1C(=O)OCCO [CPS-004]
sensation from the oral cavity [1]: cooling effect on the back of the mouth | cooling qualities [1]: good cooling qualities

SMILES: COc1ccc(NC(=O)[C@@H]2C[C@H](C)CC[C@H]2C(C)C)cc1 [WS-12]
potency on TRP-M8 relative to menthol (TRP-M8): 2000 times | cooling action on the skin (skin): does not produce very much cooling action on the skin

taste ([1]; applied onto the tongue): acrid taste which was objectionable
SMILES: CC(C)[C@@H]1CC[C@@H](C)C[C@H]1C(=O)OCC(O)CO (stereo partly shown) [CPS-030]
sensation from the oral cavity [1]: cooling effect on the back of the mouth | cooling qualities [1]: good cooling qualities
